Experimental data taken from patent US12016837B2, “Halogenated esters of cyclopropanated unsaturated fatty acids for use in the treatment of neurodegenerative diseases” (Synaptogenix, Inc., priority 2013, dated 2024).
One block for each compound: values may come before it.

Assays:
PKC-ε [1] = target: T1, PKC-ε (Homo sapiens, UniProt Q02156); experiment: PKC-ε activation: incorporation of 32P-inorganic phosphate from gamma-32P-ATP; assay type: biochemical
T1 sequence (Q02156 1-737): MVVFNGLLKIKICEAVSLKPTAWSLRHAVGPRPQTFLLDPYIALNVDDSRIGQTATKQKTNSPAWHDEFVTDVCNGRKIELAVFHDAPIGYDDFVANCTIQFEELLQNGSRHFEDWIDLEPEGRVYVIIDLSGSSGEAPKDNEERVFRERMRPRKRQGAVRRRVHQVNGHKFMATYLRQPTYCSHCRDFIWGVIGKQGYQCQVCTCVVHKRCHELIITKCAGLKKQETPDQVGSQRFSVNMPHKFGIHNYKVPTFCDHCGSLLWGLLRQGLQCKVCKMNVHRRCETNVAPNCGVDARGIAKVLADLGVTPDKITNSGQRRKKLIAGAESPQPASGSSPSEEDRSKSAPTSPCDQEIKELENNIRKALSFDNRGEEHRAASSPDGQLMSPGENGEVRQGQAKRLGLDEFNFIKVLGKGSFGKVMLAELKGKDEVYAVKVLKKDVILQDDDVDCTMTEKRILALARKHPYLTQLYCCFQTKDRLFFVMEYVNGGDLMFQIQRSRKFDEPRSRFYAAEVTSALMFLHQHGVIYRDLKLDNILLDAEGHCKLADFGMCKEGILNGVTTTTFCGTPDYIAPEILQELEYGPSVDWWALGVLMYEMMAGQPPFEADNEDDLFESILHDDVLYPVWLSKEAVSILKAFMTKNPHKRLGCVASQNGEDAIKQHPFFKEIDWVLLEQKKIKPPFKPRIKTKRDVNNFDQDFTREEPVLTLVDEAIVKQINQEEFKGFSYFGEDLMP
Procedure: Example 4: PKC-ε activation by DCPLA-EtF3 versus DCPLA methyl ester. […] Sen A, Alkon D L, Nelson T J, J. Biol. Chem. 287(19): 15947-58 (2012). PKC-ε activation by DCPLA-EtF3 was measured by measuring the incorporation of 32P-inorganic phosphate from gamma-32P-ATP by recombinant human PKC-ε.
Example 5: PKC-ε activation by 1,1,1-trifluoropropan-2-yl DCPLA. PKC-ε activation by 1,1,1-trifluoropropan-2-yl DCPLA was measured by measuring the incorporation of 32P-inorganic phosphate from gamma-32P-ATP by recombinant human PKC-ε. […] Activation started at 0.01 nM and was biphasic, consistent with a low and a high affinity binding site for DCPLA.

PKC-ε [2] = target: T1, PKC-ε; conditions: earlier research, cited from earlier work

concentration at which PKC-ε activation started (PKC-ε [1]; FIG. 2): 10 pM | potency compared to unmodified DCPLA (PKC-ε [1]; FIG. 2, comparison in words): superior potency | shape of PKC-ε activation response (PKC-ε [1]; FIG. 2, consistent with a low and a high affinity binding site): biphasic
SMILES: CCCCCC1CC1CC1CC1CCCCCCCC(=O)OC(C)C(F)(F)F (stereo not drawn) [1,1,1-trifluoropropan-2-yl DCPLA]

concentration of peak PKC-ε activation (PKC-ε [1]; FIG. 1): 0.1 to 1 nM | potency as PKC-ε activator relative to DCPLA methyl ester (PKC-ε [1]; FIG. 1, more potent than DCPLA methyl ester): approximately 1000 times
SMILES: CCCCCC1CC1CC1CC1CCCCCCCC(=O)OCC(F)(F)F (stereo not drawn) [DCPLA-EtF3, DCPLA-trifluoroethyl ester]
extent of PKC-ε activation compared with DCPLA methyl ester (PKC-ε [1]; FIG. 1, comparison in words): approximately the same extent of activation as DCPLA methyl ester | potency compared with bryostatin-1 (PKC-ε [1]; comparison in words): approximately equal to that of bryostatin-1

SMILES: CCCCCC1CC1CC1CC1CCCCCCCC(=O)OC (stereo not drawn) [DCPLA methyl ester]
concentration of maximum PKC-ε activation (PKC-ε [2]): 0.1 µM | potency as PKC-ε activator relative to unesterified DCPLA (PKC-ε [2]; more potent than unesterified DCPLA): approximately 100 times
